Measurements published in PubChem BioAssay AID1259407 (Chemical Carcinogenesis Research Information System (CCRIS), 2018).
Active and inactive are the calls of the source. No rule for the calls is given here.

System: CCRIS mutagenicity, Ames/micronucleus/aberration tests
Test: CCRIS mutagenicity studies

ClC(Cl)Br
mutagenic call (End Point: Ames Salmonella typhimurium, Test System: TA97, Metabolic Activation: Hamster, liver, S-9 (10 & 30%), Aroclor 1254, Method: Preincubation): inactive; negative | mutagenic call (End Point: Ames Salmonella typhimurium, Test System: TA97, Metabolic Activation: None, Method: Preincubation): inactive; negative | mutagenic call (End Point: Ames Salmonella typhimurium, Test System: TA97, Metabolic Activation: Rat, liver, S-9 (10 & 30%), Aroclor 1254, Method: Preincubation): inactive; negative | mutagenic call (End Point: Ames Salmonella typhimurium, Test System: TA98, Metabolic Activation: Hamster, liver, S-9 (10 & 30%), Aroclor 1254, Method: Preincubation): inactive; negative | mutagenic call (End Point: Ames Salmonella typhimurium, Test System: TA98, Metabolic Activation: None, Method: Preincubation): inactive; negative | mutagenic call (End Point: Ames Salmonella typhimurium, Test System: TA98, Metabolic Activation: Rat, liver, S-9 (10 & 30%), Aroclor 1254, Method: Preincubation): inactive; negative | mutagenic call (End Point: Ames Salmonella typhimurium, Test System: TA100, Metabolic Activation: Hamster, liver, S-9 (10 & 30%), Aroclor 1254, Method: Preincubation): inactive; negative | mutagenic call (End Point: Ames Salmonella typhimurium, Test System: TA100, Metabolic Activation: None, Method: Preincubation): inactive; negative | mutagenic call (End Point: Ames Salmonella typhimurium, Test System: TA100, Metabolic Activation: Rat, liver, S-9 (10 & 30%), Aroclor 1254, Method: Preincubation): inactive; negative | mutagenic call (End Point: Ames Salmonella typhimurium, Test System: TA1535, Metabolic Activation: Hamster, liver, S-9 (10 & 30%), Aroclor 1254, Method: Preincubation): inactive; negative | mutagenic call (End Point: Ames Salmonella typhimurium, Test System: TA1535, Metabolic Activation: None, Method: Preincubation): inactive; negative | mutagenic call (End Point: Ames Salmonella typhimurium, Test System: TA1535, Metabolic Activation: Rat, liver, S-9 (10 & 30%), Aroclor 1254, Method: Preincubation): inactive; negative | mutagenic call (End Point: IN VITRO CHROMOSOMAL ABERRATIONS, Test System: CHINESE HAMSTER LUNG FIBROBLAST CELLS (CHL/IU), Metabolic Activation: RAT, LIVER, S-9, PHENOBARBITAL AND 5,6-BENZOFLAVONE): active; positive (structural changes) | mutagenic call (End Point: IN VITRO CHROMOSOMAL ABERRATIONS, Test System: CHO CELLS, Metabolic Activation: NONE): inactive; negative | mutagenic call (End Point: IN VITRO CHROMOSOMAL ABERRATIONS, Test System: CHO CELLS, Metabolic Activation: RAT, LIVER, S-9, AROCLOR 1254): inactive; negative | mutagenic call (End Point: In vivo micronucleus, Test System: Bone marrow polychromatic erythrocytes, Species: Mouse, Strain/Sex: B6C3F1/Male, Route: Intraperitoneal): inactive; negative; strain was inferred | mutagenic call (End Point: In vivo micronucleus, Test System: Peripheral blood normochromatic erythrocytes, Species: Mouse, Strain/Sex: B6C3F1/Female, Route: Oral): inactive; negative | mutagenic call (End Point: In vivo micronucleus, Test System: Peripheral blood normochromatic erythrocytes, Species: Mouse, Strain/Sex: B6.129-Trp53tm1Brd (N5) p53 Haploinsufficient//Male, Route: Oral): inactive; negative | mutagenic call (End Point: In vivo micronucleus, Test System: Peripheral blood normochromatic erythrocytes, Species: Mouse, Strain/Sex: B6.129-Trp53tm1Brd (N5) p53 Haploinsufficient/Female, Route: Oral): inactive; negative | mutagenic call (End Point: In vivo micronucleus, Test System: Peripheral blood normochromatic erythrocytes, Species: Mouse, Strain/Sex: B6.129-Trp53tm1Brd (N5) p53 Haploinsufficient/Male, Route: Oral): inactive; negative, positive results only at 350 mg/l; trend test not significant. | mutagenic call (End Point: In vivo micronucleus, Test System: Peripheral blood normochromatic erythrocytes, Species: Mouse, Strain/Sex: FVB Tg.AC hemizygous/Female, Route: Dermal): inactive; negative | mutagenic call (End Point: In vivo micronucleus, Test System: Peripheral blood normochromatic erythrocytes, Species: Mouse, Strain/Sex: FVB Tg.AC hemizygous/Female, Route: Oral): inactive; negative | mutagenic call (End Point: In vivo micronucleus, Test System: Peripheral blood normochromatic erythrocytes, Species: Mouse, Strain/Sex: FVB Tg.AC hemizygous/Male, Route: Dermal): inactive; negative | mutagenic call (End Point: In vivo micronucleus, Test System: Peripheral blood normochromatic erythrocytes, Species: Mouse, Strain/Sex: FVB Tg.AC hemizygous/Male, Route: Oral): inactive; negative | mutagenic call (End Point: Mouse Lymphoma, Test System: L5178Y (TK+/TK-), Metabolic Activation: None, Method: Suspension/Plate): inactive; negative | mutagenic call (End Point: Mouse Lymphoma, Test System: L5178Y (TK+/TK-), Metabolic Activation: Rat, liver, S-9, Aroclor 1254, Method: Suspension/Plate): active; positive | mutagenic call (Test System: AMES SALMONELLA TYPHIMURIUM, Strain/Indicator: RSJ100, Metabolic Activation: NONE, Method: STANDARD PLATE): active; positive | mutagenic call (Test System: AMES SALMONELLA TYPHIMURIUM, Strain/Indicator: TA97, Metabolic Activation: NONE, Method: STANDARD PLATE): inactive; negative | mutagenic call (Test System: AMES SALMONELLA TYPHIMURIUM, Strain/Indicator: TA97, Metabolic Activation: RAT, LIVER, S-9, AROCLOR 1254, Method: STANDARD PLATE): active; positive | mutagenic call (Test System: AMES SALMONELLA TYPHIMURIUM, Strain/Indicator: TA98, Metabolic Activation: HAMSTER, LIVER, S-9, AROCLOR 1254, Method: PREINCUBATION): inactive; negative | mutagenic call (Test System: AMES SALMONELLA TYPHIMURIUM, Strain/Indicator: TA98, Metabolic Activation: NONE, Method: PREINCUBATION): inactive; negative | mutagenic call (Test System: AMES SALMONELLA TYPHIMURIUM, Strain/Indicator: TA98, Metabolic Activation: NONE, Method: STANDARD PLATE): inactive; negative | mutagenic call (Test System: AMES SALMONELLA TYPHIMURIUM, Strain/Indicator: TA98, Metabolic Activation: RAT, LIVER, S-9, AROCLOR 1254, Method: PREINCUBATION): inactive; negative | mutagenic call (Test System: AMES SALMONELLA TYPHIMURIUM, Strain/Indicator: TA100, Metabolic Activation: HAMSTER, LIVER, S-9, AROCLOR 1254, Method: PREINCUBATION): inactive; negative | mutagenic call (Test System: AMES SALMONELLA TYPHIMURIUM, Strain/Indicator: TA100, Metabolic Activation: NONE, Method: DESICCATOR): active; positive | mutagenic call (Test System: AMES SALMONELLA TYPHIMURIUM, Strain/Indicator: TA100, Metabolic Activation: NONE, Method: FLUCTUATION TEST): inactive; negative | mutagenic call (Test System: AMES SALMONELLA TYPHIMURIUM, Strain/Indicator: TA100, Metabolic Activation: NONE, Method: PREINCUBATION): inactive; negative | mutagenic call (Test System: AMES SALMONELLA TYPHIMURIUM, Strain/Indicator: TA100, Metabolic Activation: NONE, Method: STANDARD PLATE): inactive; negative | mutagenic call (Test System: AMES SALMONELLA TYPHIMURIUM, Strain/Indicator: TA100, Metabolic Activation: RAT, LIVER, S-9, AROCLOR 1254, Method: FLUCTUATION TEST): inactive; negative | mutagenic call (Test System: AMES SALMONELLA TYPHIMURIUM, Strain/Indicator: TA100, Metabolic Activation: RAT, LIVER, S-9, AROCLOR 1254, Method: PREINCUBATION): inactive; negative | mutagenic call (Test System: AMES SALMONELLA TYPHIMURIUM, Strain/Indicator: TA104, Metabolic Activation: NONE, Method: STANDARD PLATE): inactive; negative | mutagenic call (Test System: AMES SALMONELLA TYPHIMURIUM, Strain/Indicator: TA104, Metabolic Activation: RAT, LIVER, S-9, AROCLOR 1254, Method: STANDARD PLATE): active; positive | mutagenic call (Test System: AMES SALMONELLA TYPHIMURIUM, Strain/Indicator: TA1535 (GST+), Metabolic Activation: NONE, Method: STANDARD PLATE): active; positive | mutagenic call (Test System: AMES SALMONELLA TYPHIMURIUM, Strain/Indicator: TA1535 (GST-), Metabolic Activation: NONE, Method: STANDARD PLATE): inactive; negative | mutagenic call (Test System: AMES SALMONELLA TYPHIMURIUM, Strain/Indicator: TA1535, Metabolic Activation: HAMSTER, LIVER, S-9, AROCLOR 1254, Method: PREINCUBATION): inactive; negative | mutagenic call (Test System: AMES SALMONELLA TYPHIMURIUM, Strain/Indicator: TA1535, Metabolic Activation: NONE, Method: PREINCUBATION): inactive; negative | mutagenic call (Test System: AMES SALMONELLA TYPHIMURIUM, Strain/Indicator: TA1535, Metabolic Activation: RAT, LIVER, S-9, AROCLOR 1254, Method: PREINCUBATION): inactive; negative | mutagenic call (Test System: AMES SALMONELLA TYPHIMURIUM, Strain/Indicator: TA1535, Metabolic Activation: RAT, LIVER, S-9, AROCLOR 1254, Method: STANDARD PLATE): inactive; negative | mutagenic call (Test System: AMES SALMONELLA TYPHIMURIUM, Strain/Indicator: TA1537, Metabolic Activation: HAMSTER, LIVER, S-9, AROCLOR 1254, Method: PREINCUBATION): inactive; negative | mutagenic call (Test System: AMES SALMONELLA TYPHIMURIUM, Strain/Indicator: TA1537, Metabolic Activation: NONE, Method: PREINCUBATION): inactive; negative | mutagenic call (Test System: AMES SALMONELLA TYPHIMURIUM, Strain/Indicator: TA1537, Metabolic Activation: NONE, Method: STANDARD PLATE): active; positive | mutagenic call (Test System: AMES SALMONELLA TYPHIMURIUM, Strain/Indicator: TA1537, Metabolic Activation: RAT, LIVER, S-9, AROCLOR 1254, Method: PREINCUBATION): inactive; negative | mutagenic call (Test System: AMES SALMONELLA TYPHIMURIUM, Strain/Indicator: TA1537, Metabolic Activation: RAT, LIVER, S-9, AROCLOR 1254, Method: STANDARD PLATE): inactive; negative | mutagenic call (Test System: MOUSE LYMPHOMA, Strain/Indicator: L5178Y (TK+/TK-), Metabolic Activation: NONE, Method: MICROWELL): inactive; negative | mutagenic call (Test System: MOUSE LYMPHOMA, Strain/Indicator: L5178Y (TK+/TK-), Metabolic Activation: NONE, Method: SUSPENSION/PLATE): inactive; negative | mutagenic call (Test System: MOUSE LYMPHOMA, Strain/Indicator: L5178Y (TK+/TK-), Metabolic Activation: RAT, LIVER, S-9, AROCLOR 1254, Method: SUSPENSION/PLATE): active; positive | mutagenic call (Test System: MOUSE LYMPHOMA, Strain/Indicator: L5178Y (TK+/TK-), Metabolic Activation: S-9, Method: MICROWELL): active; positive | mutagenic call (Test System: UDS RAT HEPATOCYTES, Strain/Indicator: THY INCORP, Metabolic Activation: NONE, Method: AUTORADIOGRAPHY): inactive; negative
